Measured values published in article PMC11080019, “Synthesis and Biological Profiling of Quinolino-Fused 7-Deazapurine Nucleosides” (ACS Omega, 2024).
Structures can show the parent of a compound that is named as a salt.

Target: T1, T7 RNA polymerase (Escherichia phage T7, UniProt P00573)
T1 construct: purchased New England Biolabs
Experiment: In vitro transcription (IVT) with T7 RNA polymerase, 35DNA_A7 template
Format: biochemical
Settings: 7.5 mM NTPs, 37 °C, 16 h, 35-mer RNA with seven modifications
Protocol: A^QTP was then used as a substrate for the T7 RNA polymerase in the in vitro transcription (IVT) experiments.[30] We used 35DNA_A7 DNA template encoding for 35-mer RNA containing seven A^Q modifications (Table 4). We used the T7 High Yield RNA Synthesis Kit with a high concentration of NTPs (7.5 mM each) but without any further additives. The reaction time at 37 °C was 16 h. The positive control experiment was performed with all four natural NTPs giving nonmodified transcript 35RNA_A7 (Figure 2, lane 2). The negative control contained only the natural CTP, GTP, and UTP in the absence of ATP (Figure 2, lane 3). The real IVT experiment was performed with A^QTP and three natural NTPs (Figure 2, lane 4). The transcription products were visualized by denaturing 20% denaturing PAGE (Figure 2) and characterized by LC–MS (see Figures S1 and S2 in the SI). […]
Aliquots of the first three reactions (50 ng) were separated by denaturating PAGE (20%) with urea at 23 mV for 1 h and visualized by fluorescence imaging.
Aliquots of the positive control (35RNA_A7) and the modified RNA (35RNA_A^Q7) were analyzed by UPLC-ESI-MS confirming the full transcription without any misincorporation (see Figures S1 and S2 in Supporting Information).

T1 sequence (P00573 whole entry): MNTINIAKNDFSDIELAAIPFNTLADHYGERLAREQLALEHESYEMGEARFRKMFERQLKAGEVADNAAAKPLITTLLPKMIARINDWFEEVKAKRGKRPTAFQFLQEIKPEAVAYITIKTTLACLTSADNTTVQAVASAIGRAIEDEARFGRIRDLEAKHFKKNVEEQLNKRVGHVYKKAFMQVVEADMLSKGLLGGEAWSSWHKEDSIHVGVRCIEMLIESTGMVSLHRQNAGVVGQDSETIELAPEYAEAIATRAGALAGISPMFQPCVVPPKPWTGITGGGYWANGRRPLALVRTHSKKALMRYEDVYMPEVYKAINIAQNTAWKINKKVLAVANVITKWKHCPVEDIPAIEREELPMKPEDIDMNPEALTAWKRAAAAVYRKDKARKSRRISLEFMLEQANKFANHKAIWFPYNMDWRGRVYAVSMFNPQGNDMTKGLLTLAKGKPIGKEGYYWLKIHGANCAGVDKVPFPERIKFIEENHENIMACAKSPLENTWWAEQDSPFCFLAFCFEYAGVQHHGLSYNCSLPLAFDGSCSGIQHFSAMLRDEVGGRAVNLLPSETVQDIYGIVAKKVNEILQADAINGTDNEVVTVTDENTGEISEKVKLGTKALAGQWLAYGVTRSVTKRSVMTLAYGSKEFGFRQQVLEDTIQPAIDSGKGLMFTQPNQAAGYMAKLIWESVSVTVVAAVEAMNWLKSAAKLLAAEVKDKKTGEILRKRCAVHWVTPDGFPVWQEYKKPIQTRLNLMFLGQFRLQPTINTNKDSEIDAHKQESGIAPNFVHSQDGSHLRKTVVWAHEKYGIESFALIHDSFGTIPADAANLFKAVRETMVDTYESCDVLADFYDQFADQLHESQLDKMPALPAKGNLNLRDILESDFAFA

Nc1ncnc2c1c1c3cccnc3ccc1n2[C@@H]1O[C@H](COP(=O)(O)OP(=O)(O)OP(=O)(O)O)[C@@H](O)[C@H]1O [A^QTP, 11-Amino-7-(β-D-ribofuranosyl)pyrimido[5′,4′:4,5]pyrrolo[3,2-f]quinoline 5′-O-Triphosphate Bistriethylammonium Salt]
substrate activity for T7 RNA polymerase in in vitro transcription (in words): moderately efficient substrate
